The test concerns the target T1, hSTING WT (Homo sapiens, UniProt Q86WV6, H232R).
T1 construct: made in house; host or cells: BL21 Rosetta 2 (DE3) E. coli
The test is described as follows: ITC binding assay, hSTING WT. To be noted: 25° C., protein 0.1 mM, ligand 0.35 mM. As to the method: The WT and REF proteins were similarly prepared for use in an ITC binding assay. Expression plasmids were transformed into BL21 Rosetta 2 (DE3) (EMD Millipore) E. coli cells for protein expression. 50 ml starter cultures were grown overnight in 2×YT supplemented with 50 μg/ml kanamycin and 30 μg/ml chloramphenicol. Multi-liter large scale cultures of the same growth media as the starter were inoculated at a ratio of 1:1,000 (V/V) and allowed to grow at 37° C. to an optical density of 0.6, cultures were then shifted to 18° C. Protein expression was induced by the addition of isopropyl β-D-1-thiogalactopyranoside to a final concentration of 0.3 mM. Protein expression was allowed to proceed for 18-24 hrs. Pelleted cells were resuspended in 50 mM Tris pH 7.5, 500 mM NaCl, 10% glycerol, 20 mM imidazole, 1 mM TCEP and complete protease inhibitor cocktail (Sigma). Cells were lysed by sonication (Branson) and insoluble material was removed by centrifugation. Proteins were purified on Ni-NTA resin and concentrated to >10 mg/ml. 6×H-SUMO-STING LBD was further purified by gel filtration chromatography using a High Load 26/600 Superdex 75 column (GE Healthcare) in a buffer of 20 mM Tris pH 7.5, 150 mM NaCl, 5% glycerol and 1 mM TCEP. Peak fractions were concentrated to between 10-15 mg/ml via ultrafiltration aliquoted and flash frozen in liquid nitrogen and stored at […]
The resulting amino acid sequence for the STING WT allele is as follows: • Allele Name: WT • Amino Acid Sequence:
Proteins were dialyzed overnight in 20 mM HEPES pH 7.5, 150 mM NaCl. Insoluble material was removed by centrifugation at 31,000×g. The invention compound 2′2′-RR-(3′F-A)(3′F-A) and comparison STING agonists 3′3′-RR-(2′F-A)(2′F-A); 2′3′-RR-(3′F-A)(2′F-A) were resuspended in dialysis buffer. The concentration of both the protein and ligands were checked by spectroscopy and adjusted if necessary.
STING protein was added to the ITC sample cell at a final concentration of 0.1 mM. The CDN ligand was at a final concentration of 0.35 mM in the syringe. […]

In patent US10975114B2, “Bis 2′-5′-RR-(3′F-A)(3′F-A) cyclic dinucleotide compound and uses thereof” (ADURO BIOTECH, INC., priority 2017, dated 2021) one finds Kd data, which are given here for one compound.

The Kd is the free concentration of one partner at which half of the binding sites on the other are occupied at equilibrium, for simple one-to-one binding. The compound `Nc1ncnc2c1ncn2[C@@H]1O[C@@H]2CO[P@@](=O)(S)O[C@@H]3[C@H](F)[C@@H](CO[P@@](=O)(S)O[C@@H]1[C@@H]2F)O[C@H]3n1cnc2c(N)ncnc21` [2′2′-RR-(3′F-A)(3′F-A), (1S,3R,6R,8R,9S,11R,14R,16R,17R,18R)-8,16-bis(6-amino-9H-purin-9-yl)-17,18-difluoro-3,11-dimercapto-2,4,7,10,12,15-hexaoxa-3,11-diphosphatricyclo[12.2.1.1^6,9]octadecane 3,11-dioxide] showed a Kd of 98 nM.
